The assay concerns the target T1, C5AR1 (Homo sapiens, UniProt P21730).
T1 construct: host or cells: CHO-K1
T1 sequence (P21730 1-350): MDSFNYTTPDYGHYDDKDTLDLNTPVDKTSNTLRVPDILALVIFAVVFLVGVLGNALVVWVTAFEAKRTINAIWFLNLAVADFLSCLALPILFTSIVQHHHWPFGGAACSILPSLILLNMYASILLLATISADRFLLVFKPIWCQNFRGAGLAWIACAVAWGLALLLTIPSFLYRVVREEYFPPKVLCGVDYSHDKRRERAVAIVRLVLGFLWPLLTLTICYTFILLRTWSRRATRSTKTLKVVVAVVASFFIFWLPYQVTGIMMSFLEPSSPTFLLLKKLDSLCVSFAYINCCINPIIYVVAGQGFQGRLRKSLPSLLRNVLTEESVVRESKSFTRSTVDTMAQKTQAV
The experiment in a line: hC5a DISCO IC50 assay (PathHunter beta-arrestin, antagonist mode). The format is cell-based. As to conditions: CHO-K1 C5AR1 beta-arrestin cell line; antagonist vs 1-10 nM C5a agonist; geometric mean values; read-out: C5aR IC50. The method in brief:
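Antagonist added first, then 1-10 nM C5a agonist; cells incubated 1.5 h at 37 °C. Beta-arrestin signal developed with PathHunter detection reagent, 45 min at RT. IC50 in nmol/l from serial antagonist dilutions, reported as geometric mean of several measurements.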
`COc1cccc2c1n(Cc1ccccc1C(F)(F)F)c(=O)n2C1C2CC1CN(c1c(C)cccc1F)C2` (centres unmarked) [Example 197, 1-[3-(2-Fluoro-6-methyl-phenyl)-3-aza-bicyclo[3.1.1]hept-6-yl]-4-methoxy-3-(2-trifluoromethyl-benzyl)-1,3-dihydro-benzoimidazol-2-one]: the IC50 was determined as 74 nM. The value for `COc1cccc2c1n(Cc1ccncc1C(F)(F)F)c(=O)n2C1CCN(c2c(C)cccc2C)CC1` [Example 73, 1-[1-(2,6-Dimethyl-phenyl)-piperidin-4-yl]-4-methoxy-3-(3-trifluoromethyl-pyridin-4-ylmethyl)-1,3-dihydro-benzoimidazol-2-one] was 272 nM.

With `COc1cccc2c1n(Cc1ccccc1C(F)(F)F)c(=O)n2C1CCN(c2ncccc2F)CC1` [Example 236, 1-(3′-Fluoro-3,4,5,6-tetrahydro-2H-[1,2′]bipyridinyl-4-yl)-4-methoxy-3-(2-trifluoromethyl-benzyl)-1,3-dihydro-benzoimidazol-2-one], the IC50 came to 171 nM. The value for `CCOC(=O)N1CC[C@@H](n2c(=O)n(Cc3ccccc3C(F)(F)F)c3c(OC)cccc32)C1` [Example 60, (R)-3-[4-Methoxy-2-oxo-3-(2-trifluoromethyl-benzyl)-2,3-dihydro-benzoimidazol-1-yl]-pyrrolidine-1-carboxylic acid ethyl ester] was 84 nM. With `COc1cccc2c1n(Cc1ccccc1C(F)(F)F)c(=O)n2[C@@H]1CCN(c2nnc(C(F)(F)F)o2)C1` [Example 84, 4-Methoxy-3-(2-trifluoromethyl-benzyl)-1-[(R)-1-(5-trifluoromethyl-[1,3,4]oxadiazol-2-yl)-pyrrolidin-3-yl]-1,3-dihydro-benzoimidazol-2-one] the figure was 2030 nM; with `Cc1cccc(C)c1N1CC[C@@H](n2c(=O)n(Cc3ccccc3C(F)(F)F)c3c(O)cccc32)C1` [Example 44, 1-[(R)-1-(2,6-Dimethyl-phenyl)-pyrrolidin-3-yl]-4-hydroxy-3-(2-trifluoromethyl-benzyl)-1,3-dihydro-benzoimidazol-2-one], 13 nM. With `COc1cccc2c1n(Cc1ccncc1C(F)(F)F)c(=O)n2C1CCN(c2c(F)cccc2F)CC1` [Example 74, 1-[1-(2,6-Difluoro-phenyl)-piperidin-4-yl]-4-methoxy-3-(3-trifluoromethyl-pyridin-4-ylmethyl)-1,3-dihydro-benzoimidazol-2-one] the figure was 1330 nM; with `COc1cccc2c1n(Cc1ccccc1C(F)(F)F)c(=O)n2C1CCN(Cc2ccc(Cl)cc2Cl)CC1` [Example 5, 1-[1-(2,4-Dichloro-benzyl)-piperidin-4-yl]-4-methoxy-3-(2-trifluoromethyl-benzyl)-1,3-dihydro-benzoimidazol-2-one], 284 nM; with `Cc1cccc(C)c1N1CC[C@@H](n2c(=O)n(Cc3ccccc3C(F)(F)F)c3c(OCCO)cccc32)C1` [Example 52, 1-[(R)-1-(2,6-Dimethyl-phenyl)-pyrrolidin-3-yl]-4-(2-hydroxy-ethoxy)-3-(2-trifluoromethyl-benzyl)-1,3-dihydro-benzoimidazol-2-one], 30 nM.

On to `COc1cccc2c1n(Cc1ncccc1C(F)(F)F)c(=O)n2C1CCN(c2c(C)cccc2F)CC1` [Example 216, 1-[1-(2-Fluoro-6-methyl-phenyl)-piperidin-4-yl]-4-methoxy-3-(3-trifluoromethyl-pyridin-2-ylmethyl)-1,3-dihydro-benzoimidazol-2-one], for which the concentration for half-maximal inhibition (IC50) came to 12 nM. With `COC(=O)N1CCC(n2c(=O)n(Cc3ccccc3C(F)(F)F)c3c(OC)cccc32)CC1` [Example 29, 4-[4-Methoxy-2-oxo-3-(2-trifluoromethyl-benzyl)-2,3-dihydro-benzoimidazol-1-yl]-piperidine-1-carboxylic acid methyl ester] the figure was 182 nM; with `COc1cccc2c1n(Cc1ccccc1OCC1CC1)c(=O)n2C1CCN(c2c(C)cccc2F)CC1` [Example 224, 3-(2-Cyclopropylmethoxy-benzyl)-1-[1-(2-fluoro-6-methyl-phenyl)-piperidin-4-yl]-4-methoxy-1,3-dihydro-benzoimidazol-2-one], 18 nM; with `Cc1cccc(F)c1N1CC[C@@H](n2c(=O)n(Cc3ccccc3C(F)(F)F)c3c(OC4COC4)cccc32)C1` [Example 149, 1-[(R)-1-(2-Fluoro-6-methyl-phenyl)-pyrrolidin-3-yl]-4-(oxetan-3-yloxy)-3-(2-trifluoromethyl-benzyl)-1,3-dihydro-benzoimidazol-2-one], 14 nM.

As for `COc1cccc2c1n(Cc1ccccc1C(F)(F)F)c(=O)n2[C@@H]1CCN(C(=O)Oc2ccccc2)C1` [Example 63, (R)-3-[4-Methoxy-2-oxo-3-(2-trifluoromethyl-benzyl)-2,3-dihydro-benzoimidazol-1-yl]-pyrrolidine-1-carboxylic acid phenyl ester], the IC50 amounted to 729 nM.

On to `COc1cccc2c1n(Cc1cncnc1C(F)(F)F)c(=O)n2C1CCN(c2c(F)cccc2C#N)CC1` [Example 117, 3-Fluoro-2-{4-[4-methoxy-2-oxo-3-(4-trifluoromethyl-pyrimidin-5-ylmethyl)-2,3-dihydro-benzoimidazol-1-yl]-piperidin-1-yl}-benzonitrile], for which the IC50 worked out at 308 nM. The value for `Cc1cccc(F)c1N1CC[C@@H](n2c(=O)n(Cc3ccccc3C(F)(F)F)c3c(OCCN4CCOCC4)nccc32)C1` [Example 121, 1-[(R)-1-(2-Fluoro-6-methyl-phenyl)-pyrrolidin-3-yl]-4-(2-morpholin-4-yl-ethoxy)-3-(2-trifluoromethyl-benzyl)-1,3-dihydro-imidazo[4,5-c]pyridin-2-one] was 270 nM; that for `COc1cccc2c1n(Cc1ccccc1C(F)(F)F)c(=O)n2[C@@H]1CCN(c2c(F)cccc2CN(C)C)C1` [Example 106, 1-[(R)-1-(2-Dimethylaminomethyl-6-fluoro-phenyl)-pyrrolidin-3-yl]-4-methoxy-3-(2-trifluoromethyl-benzyl)-1,3-dihydro-benzoimidazol-2-one] was 227 nM; that for `COc1ncncc1Cn1c(=O)n([C@@H]2CCN(c3c(C)cccc3F)C2)c2cccc(OC)c21` [Example 175, 1-[(R)-1-(2-Fluoro-6-methyl-phenyl)-pyrrolidin-3-yl]-4-methoxy-3-(4-methoxy-pyrimidin-5-ylmethyl)-1,3-dihydro-benzoimidazol-2-one] was 221 nM.

Turning to `Cc1cccc(C)c1N1CC[C@@H](n2c(=O)n(Cc3ccccc3C(F)(F)F)c3c(OCCO)nccc32)C1` [Example 119, 1-[(R)-1-(2,6-Dimethyl-phenyl)-pyrrolidin-3-yl]-4-(2-hydroxy-ethoxy)-3-(2-trifluoromethyl-benzyl)-1,3-dihydro-imidazo[4,5-c]pyridin-2-one], the IC50 was 12 nM. With `COc1ccccc1Cn1c(=O)n([C@@H]2CCN(c3c(C)cccc3C)C2)c2ccnc(OC)c21` [Example 77, 1-[(R)-1-(2,6-Dimethyl-phenyl)-pyrrolidin-3-yl]-4-methoxy-3-(2-methoxy-benzyl)-1,3-dihydro-imidazo[4,5-c]pyridin-2-one] the figure was 89 nM; with `Cc1cccc(F)c1N1CC[C@@H](n2c(=O)n(Cc3ccccc3C(F)(F)F)c3c(OCC4COC(C)(C)O4)cccc32)C1` (stereo partly drawn) [Example 151, 4-(2,2-Dimethyl-[1,3]dioxolan-4-ylmethoxy)-1-[(R)-1-(2-fluoro-6-methyl-phenyl)-pyrrolidin-3-yl]-3-(2-trifluoromethyl-benzyl)-1,3-dihydro-benzoimidazol-2-one], 31 nM; with `COc1cccc2c1n(Cc1c(F)cc(F)cc1OC(C)C)c(=O)n2[C@@H]1CCN(c2c(C)cccc2F)C1` [Example 220, 3-(2,4-Difluoro-6-isopropoxy-benzyl)-1-[(R)-1-(2-fluoro-6-methyl-phenyl)-pyrrolidin-3-yl]-4-methoxy-1,3-dihydro-benzoimidazol-2-one], 109 nM. With `COc1ncnc2c1n(Cc1ccccc1C(F)(F)F)c(=O)n2[C@@H]1CCN(c2c(F)cccc2C#N)C1` [Example 104, 3-Fluoro-2-{(R)-3-[6-methoxy-8-oxo-7-(2-trifluoromethyl-benzyl)-7,8-dihydro-purin-9-yl]-pyrrolidin-1-yl}-benzonitrile] the figure was 863 nM; with `COc1ccccc1Cn1c(=O)n([C@@H]2CCN(c3c(F)cccc3C#N)C2)c2ncnc(OC)c21` [Example 105, 3-Fluoro-2-{(R)-3-[6-methoxy-7-(2-methoxy-benzyl)-8-oxo-7,8-dihydro-purin-9-yl]-pyrrolidin-1-yl}-benzonitrile], 4480 nM; with `COc1cccc2c1n(Cc1ccccc1C(F)(F)F)c(=O)n2C1CCN(c2c(C)cccc2F)CC1C` (centres unmarked) [Example 147, 1-[1-(2-Fluoro-6-methyl-phenyl)-3-methyl-piperidin-4-yl]-4-methoxy-3-(2-trifluoromethyl-benzyl)-1,3-dihydro-benzoimidazol-2-one], 20 nM. With `COc1cccc2c1n(Cc1ccccc1C(F)(F)F)c(=O)n2[C@@H]1CCN(C(=O)OC2(C(F)(F)F)COC2)C1` [Example 86, (R)-3-[4-Methoxy-2-oxo-3-(2-trifluoromethyl-benzyl)-2,3-dihydro-benzoimidazol-1-yl]-pyrrolidine-1-carboxylic acid 3-trifluoromethyl-oxetan-3-yl ester] the figure was 229 nM.

As usually defined, the IC50 is the concentration needed to halve the response being measured.

The values above are taken from US11739070B2, “C5A receptor modulators” (IDORSIA PHARMACEUTICALS LTD, priority 2018, dated 2023).
